# Test results from EP3838286B1, “ANTIMICROBIAL PEPTIDE FROM POLISTES GALLICUS VENOM AND ITS ANALOGS” (Latoxan, priority 2019, dated 2021).
# Where two headings read alike, the source gives them in different places. Square brackets hold non-standard residues; d marks the D form. Peptide text beside a SMILES is read from it.
# Tests used:
# [1] = tested on: PC-3; test: Antitumor / antiproliferative activity (resazurin); assay type: cell-based, human; conditions: prostate cancer cells; 5,000 cells/well; 48 h; read-out: IC50 antiproliferative effect PC-3
# Experimental: (§1) Human cancer cell lines (Mia PaCa-2 (CRL-1420), PC-3 (CRL-1435), MDA-MB-231 (HTB-26)) and normal lung fibrobasts (BEAS-2B (ATCC CRL-9609) and IMR-90 (ATCC CCL-186)) were obtained from American Type Culture Collection (ATCC). HUVEC cells were obtained from Sigma Aldrich and were grown in defined all-in-one ready to use endothelial cell growth medium (Sigma Aldrich). Other cells were cultured in Dulbecco's modified Eagle's medium (DMEM, Gibco Life Technologies) supplemented with 10% heat-inactivated fetal calf serum (FCS, Lonza) at 37 °C in an incubator containing 5% CO2. Cells were sub-cultured in new media every 3-4 days. Antiproliferative / antitumor effects of the peptides were measured as previously described (Borie et al., Eur J Med Chem. 2018;148:306-313). Briefly, cells were detached from growing flask using trypsin, cells were counted and seeded in 96 well-plates in the growth media at an initial cell density of 5000 cells/well. Cells were left for 4 h to attach to the wells. Cells were then treated with increasing concentrations of peptides diluted in culture media. After 48 h incubation at 37 °C in a 5% CO2 incubator, wells were emptied and cell number was evaluated using Resazurin based in vitro toxicity assay kit (from Sigma-Aldrich) following manufacturer's instructions. Briefly, Resazurin stock solution was diluted 1:10 in sterile PBS containing calcium and magnesium (PBS, pH 7.4) and empty wells were filled with 100 µL of the diluted solution. After 4 h incubation at 37 °C, fluorescence intensity was measured using microplate reader (Synergy Mx, Biotek) with an excitation wavelength of 530 nm and an emission wavelength of 590 nm. The fluorescence values were normalized by the controls (buffer treated cells) and expressed as per-cent viability. The IC50 values of peptides on cell division / proliferation (i.e. the concentration of derivative causing a reduction of 50% of cell division) were determined using GraphPad ® Prism 7 software. t-Test and two way ANOVA analyses were used to address the significant differences between mean values with significance set at p < 0.05.
# [2] = tested on: MDA-MB-231; test: Antitumor / antiproliferative activity (resazurin); assay type: cell-based, human; conditions: breast cancer cells; 5,000 cells/well; 48 h; read-out: IC50 antiproliferative effect MDA-MB-231
# Experimental: as §1
# [3] = tested on: MiaPaCa-2; test: Antitumor / antiproliferative activity (resazurin); assay type: cell-based, human; conditions: pancreas cancer cells; 5,000 cells/well; 48 h; read-out: IC50 antiproliferative effect MiaPaCa-2
# Experimental: as §1
# [4] = tested on: V. alginolyticus
# [5] = tested on: C. rodentium
# [6] = tested on: Pseudomonas aeruginosa; test: Stability of the peptides to proteases and human serum (MIC of digested peptides); assay type: in vitro ADME
# Experimental: In order to evaluate the stability of the peptides to condition they will face in vivo, their resistance to proteases and human serum was evaluated (Oyama et al., 2017 Biofilms Microbiomes, Dec 1;3:33). Briefly, one volume of peptides (at 1 mM) was diluted in one volume of proteases (Pepsin, Trypsin, Chymotrypsin, Papain all from Sigma Aldrich and diluted at 2 mg/ml in HCl 10 mM pH2 for Pepsin, PBS pH 7 for Trypsin and Chymotrysin and PBS pH 6 for Papain) or human serum (Sigma Aldrich H4522). Peptides incubated in the same conditions in PBS were used as controls. After 4 h (for proteases) and 4 or 24 h (for human serum) of incubation at 37°C, PMSF was added to the reaction mixture at a final concentration of 100 µM to stop the digestion. MIC of the digested peptides were then determined as explained above.
# [7] = tested on: C. farmeri
# [8] = tested on: P. aeruginosa 01
# [9] = tested on: S. flexneri
# [10] = tested on: P. aeruginosa FQR
# [11] = tested on: H. pylori
# [12] = Cytotoxicity assay (resazurin); assay type: cell-based; conditions: human
# Experimental: Normal human cells used were BEAS-2B (ATCC CRL-9609), IMR-90 (ATCC CCL-186) and Human Umbilical Vein Endothelial Cells (HUVEC) (from Sigma-Aldrich) corresponding respectively to human normal lung epithelial, normal lung fibroblast cells and human normal endothelial cells. All cells except HUVEC cells were cultured in Dulbecco's modified essential medium (DMEM) supplemented with 10% fetal calf serum (FCS), 1% L-glutamine and 1% antibiotics (all from Invitrogen). HUVEC cells were cultured in specific endothelial media (from Sigma Aldrich). Cells were seeded onto […] maintained in a 5% CO2 incubator at 37 °C. Cells grown on 25 cm^2 flasks were detached using trypsin-EDTA solution (from Thermofisher), counted using Mallassez counting chamber and seeded into 96-well cell culture plates (Greiner bio-one) at approximately 10,000 cells per well. The cells were left to grow for 48-72 h at 37 °C in a 5% CO2 incubator until they reached confluence. Plates were then aspirated and increasing concentrations of peptides diluted in culture media were added to the cells for 48 h at 37 °C in a 5% CO2 incubator. At the end of the incubation, wells were emptied and cell viability was evaluated using Resazurin based in vitro toxicity assay kit (from Sigma-Aldrich) following manufacturer's instructions. Briefly, Resazurin stock solution was diluted 1:10 in sterile PBS containing calcium and magnesium (PBS, pH 7.4) and empty wells were filled with 100 µL of the diluted solution. After 4 h incubation at 37 °C, fluorescence intensity was measured using microplate reader (Synergy Mx, Biotek) with an excitation wavelength of 530 nm and an emission wavelength of 590 nm. The fluorescence values were normalized by the controls (buffer treated cells) and expressed as percent viability. The IC50 values of peptides on cell viability (i.e. the concentration of derivative causing a reduction of 50% of cell viability) were determined using GraphPad® Prism 7 software. t-Test and two way ANOVA analyses were used to address the significant differences between mean values with significance set at p < 0.05.
# [13] = tested on: S. enterica
# [14] = tested on: A. gandavensis
# [15] = tested on: B. subtilis (Nisin-resistant)
# [16] = tested on: M. smegmatis; conditions: 72 h
# [17] = tested on: E. coli EHEC K88
# [18] = tested on: P. aeruginosa
# [19] = tested on: L. lactis
structure (smiles),measurement,setting,value
"CC[C@@H](C)[C@@H](N)C(=O)N[C@H](CC(C)C)C(=O)N[C@H](CCCCN)C(=O)N[C@H](C)C(=O)N[C@@H](C(=O)N[C@H](CCCCN)C(=O)N[C@H](CCCCN)C(=O)N[C@H](CC(C)C)C(=O)N[C@H](CC(C)C)C(=O)N[C@H](CCCCN)C(N)=O)[C@H](C)CC [(i1k10*) enantio, ilkaikkllk] (H-[dI][dL][dK][dA][dI][dK][dK][dL][dL][dK]-NH2)",IC50,[1],39.3 µM
same,IC50,[2],61.7 µM
same,IC50,[3],13.4 µM
same,MBC (µM) V. alginolyticus,[4],1.5 µM
same,MIC (µM) V. alginolyticus,[4],0.78 to 1.56 µM
same,MBC (µM) C. rodentium,[5],50 µM
same,MIC (µM) C. rodentium,[5],50 µM
same,MIC (µM) Serum4h,"[6]; after 4 h at 37°C in human serum, against Pseudomonas aeruginosa",1.5 µM
same,MIC (µM) Chymotrypsin,"[6]; after 4 h at 37°C with chymotrypsin, pH 7, against Pseudomonas aeruginosa",1.5 µM
same,MIC (µM) Pepsin,"[6]; after 4 h at 37°C with pepsin, pH2, against Pseudomonas aeruginosa",1.5 µM
same,MIC (µM) Trypsin,"[6]; after 4 h at 37°C with trypsin, pH 7, against Pseudomonas aeruginosa",1.5 µM
same,MIC (µM) Serum24h,"[6]; after 24 h at 37°C in human serum, against Pseudomonas aeruginosa",0.75 µM
same,stability to proteases and human serum,"[6]; pepsin, trypsin, chymotrypsin, human serum",not affected
same,MIC (µM) Control,"[6]; peptide incubated in PBS, not treated with proteases, against Pseudomonas aeruginosa",1.5 µM
same,MBC (µM) C. farmeri,[7],50 µM
same,MIC (µM) C. farmeri,[7],12.5 µM
same,MBC (µM) P. aeruginosa 01,[8],50 µM
same,MIC (µM) P. aeruginosa 01,[8],12.5 µM
same,MBC (µM) S. flexneri,[9],12.5 µM
same,MIC (µM) S. flexneri,[9],12.5 µM
same,MBC (µM) P. aeruginosa FQR,[10],100 µM
same,MIC (µM) P. aeruginosa FQR,[10],12.5 to 25 µM
same,MBC (µM) H. pylori,[11],50 µM
same,MIC (µM) H. pylori,[11],50 µM
same,CC50 at 48 h,"[12]; BEAS-2B normal lung epithelial cells, normal lung epithelium, read-out: Cytotoxicity IC50 (µM) BEAS",726 µM
same,CC50 at 48 h,"[12]; HUVEC (human umbilical vein endothelial cells), normal endothelium, read-out: Cytotoxicity IC50 (µM) HUVEC",683 µM
same,CC50 at 48 h,"[12]; IMR-90 normal lung fibroblast cells, read-out: Cytotoxicity IC50 (µM) IMR90",365 µM
same,MBC (µM) S. enterica,[13],25 µM
same,MIC (µM) S. enterica,[13],50 µM
same,MBC (µM) A. gandavensis,[14],1.5 µM
same,MIC (µM) A. gandavensis,[14],1.5 µM
same,MBC (µM) B. subtilis (Nisin-resistant),[15],12.5 µM
same,MIC (µM) B. subtilis (Nisin-resistant),[15],12.5 µM
same,MIC (µM) M. smegmatis,[16],6.25 µM
same,MBC (µM) E. coli EHEC K88,[17],50 µM
same,MIC (µM) E. coli EHEC K88,[17],50 µM
same,MBC (µM) P. aeruginosa,[18],3.12 µM
same,MIC (µM) P. aeruginosa,[18],3.125 µM
same,MIC PA,[18],3.125 µM
same,MBC (µM) L. lactis,[19],3.12 µM
same,MIC (µM) L. lactis,[19],1.5 µM
